Common to all, as to assay: TGFα-shedding assay-based GPCR screening with chimeric Gα subunit proteins
Format in all cases: cell-based

Assay [1] has as its target T1, 348 GPCRs (Homo sapiens, UniProt P28222).
T1 construct: expressed in transfected cells; host or cells: HEK293A
Conditions: 10µM, Favipiravir 100μM.

In assay [2] the target is T2, 348 GPCRs (Homo sapiens, UniProt P41597).
T2 construct: expressed in transfected cells; host or cells: HEK293A
Particulars: 10µM, Favipiravir 100μM.

Assay [3] addresses T3, 348 GPCRs (Homo sapiens, UniProt P25024).
T3 construct: expressed in transfected cells; host or cells: HEK293A
T3 sequence (P25024 1-350): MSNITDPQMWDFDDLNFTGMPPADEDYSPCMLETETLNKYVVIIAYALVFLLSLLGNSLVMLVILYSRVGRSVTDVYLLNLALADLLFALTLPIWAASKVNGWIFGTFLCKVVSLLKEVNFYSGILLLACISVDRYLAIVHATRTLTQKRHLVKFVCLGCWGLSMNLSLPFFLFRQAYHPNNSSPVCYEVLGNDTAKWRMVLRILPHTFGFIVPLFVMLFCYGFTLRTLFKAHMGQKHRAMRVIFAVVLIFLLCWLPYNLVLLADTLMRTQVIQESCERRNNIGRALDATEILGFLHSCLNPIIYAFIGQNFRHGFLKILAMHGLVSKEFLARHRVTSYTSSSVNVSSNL

The target in assay [4] is T4, 348 GPCRs (Homo sapiens, UniProt P32302).
T4 construct: expressed in transfected cells; host or cells: HEK293A
T4 sequence (P32302 1-372): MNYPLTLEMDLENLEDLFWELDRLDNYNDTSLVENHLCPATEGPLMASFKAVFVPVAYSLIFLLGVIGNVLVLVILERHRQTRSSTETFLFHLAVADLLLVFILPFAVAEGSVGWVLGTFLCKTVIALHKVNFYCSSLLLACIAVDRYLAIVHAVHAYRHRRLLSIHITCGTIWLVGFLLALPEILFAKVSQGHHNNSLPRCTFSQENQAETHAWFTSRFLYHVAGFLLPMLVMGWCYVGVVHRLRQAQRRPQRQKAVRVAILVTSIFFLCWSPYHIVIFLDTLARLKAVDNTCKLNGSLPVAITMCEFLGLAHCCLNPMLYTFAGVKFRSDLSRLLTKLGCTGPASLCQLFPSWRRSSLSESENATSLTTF

Assay [5] addresses T5, 348 GPCRs (Homo sapiens, UniProt O60755).
T5 construct: expressed in transfected cells; host or cells: HEK293A
T5 sequence (O60755 1-368): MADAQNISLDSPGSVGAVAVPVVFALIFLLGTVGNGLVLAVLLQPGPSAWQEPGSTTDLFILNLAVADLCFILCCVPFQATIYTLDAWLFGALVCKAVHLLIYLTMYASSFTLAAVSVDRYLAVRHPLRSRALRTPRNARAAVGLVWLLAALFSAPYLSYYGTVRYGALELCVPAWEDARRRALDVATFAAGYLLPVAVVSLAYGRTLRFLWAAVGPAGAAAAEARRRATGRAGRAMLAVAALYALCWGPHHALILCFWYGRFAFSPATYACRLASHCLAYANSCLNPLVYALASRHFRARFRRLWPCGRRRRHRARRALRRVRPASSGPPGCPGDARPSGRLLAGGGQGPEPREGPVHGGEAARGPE
Particulars: 10µM, Favipiravir 100μM.

Assay [6] has as its target T6, 348 GPCRs (Homo sapiens, UniProt Q8IZF5).
T6 construct: expressed in transfected cells; host or cells: HEK293A
T6 sequence (Q8IZF5 26-1079): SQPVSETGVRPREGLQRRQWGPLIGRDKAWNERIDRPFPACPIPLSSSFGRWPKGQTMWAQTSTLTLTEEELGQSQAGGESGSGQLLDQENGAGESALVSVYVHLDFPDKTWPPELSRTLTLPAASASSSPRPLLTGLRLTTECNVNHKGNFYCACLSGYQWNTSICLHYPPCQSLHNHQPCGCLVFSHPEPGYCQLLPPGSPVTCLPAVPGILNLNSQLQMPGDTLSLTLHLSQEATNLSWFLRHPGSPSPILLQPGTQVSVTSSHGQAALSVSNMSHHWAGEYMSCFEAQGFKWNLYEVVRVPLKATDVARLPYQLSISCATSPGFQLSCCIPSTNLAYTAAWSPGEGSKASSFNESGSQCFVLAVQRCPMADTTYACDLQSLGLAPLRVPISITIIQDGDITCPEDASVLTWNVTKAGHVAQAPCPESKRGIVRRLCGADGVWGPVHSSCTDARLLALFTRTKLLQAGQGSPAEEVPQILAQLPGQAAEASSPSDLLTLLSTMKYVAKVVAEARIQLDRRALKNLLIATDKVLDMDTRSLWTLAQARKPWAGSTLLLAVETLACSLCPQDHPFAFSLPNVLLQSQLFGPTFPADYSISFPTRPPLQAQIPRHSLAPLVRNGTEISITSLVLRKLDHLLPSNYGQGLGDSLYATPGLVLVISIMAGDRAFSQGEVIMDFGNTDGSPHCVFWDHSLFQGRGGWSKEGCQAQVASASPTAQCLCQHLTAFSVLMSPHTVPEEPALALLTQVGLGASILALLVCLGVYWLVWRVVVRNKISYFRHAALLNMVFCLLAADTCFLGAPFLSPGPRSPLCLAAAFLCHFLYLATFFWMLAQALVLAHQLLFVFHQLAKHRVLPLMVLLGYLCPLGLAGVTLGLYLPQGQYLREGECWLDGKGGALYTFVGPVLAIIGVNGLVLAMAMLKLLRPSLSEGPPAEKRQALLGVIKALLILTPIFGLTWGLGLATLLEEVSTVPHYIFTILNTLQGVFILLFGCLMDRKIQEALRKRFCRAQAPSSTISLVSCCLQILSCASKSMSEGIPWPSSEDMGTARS

Assay [7] concerns the target T7, 348 GPCRs (Homo sapiens, UniProt Q13639).
T7 construct: expressed in transfected cells; host or cells: HEK293A
Conditions: 10µM, Favipiravir 100μM.

In assay [8] the target is T8, 348 GPCRs (Homo sapiens, UniProt Q8IZP9).
T8 construct: expressed in transfected cells; host or cells: HEK293A
T8 sequence (Q8IZP9 38-1017): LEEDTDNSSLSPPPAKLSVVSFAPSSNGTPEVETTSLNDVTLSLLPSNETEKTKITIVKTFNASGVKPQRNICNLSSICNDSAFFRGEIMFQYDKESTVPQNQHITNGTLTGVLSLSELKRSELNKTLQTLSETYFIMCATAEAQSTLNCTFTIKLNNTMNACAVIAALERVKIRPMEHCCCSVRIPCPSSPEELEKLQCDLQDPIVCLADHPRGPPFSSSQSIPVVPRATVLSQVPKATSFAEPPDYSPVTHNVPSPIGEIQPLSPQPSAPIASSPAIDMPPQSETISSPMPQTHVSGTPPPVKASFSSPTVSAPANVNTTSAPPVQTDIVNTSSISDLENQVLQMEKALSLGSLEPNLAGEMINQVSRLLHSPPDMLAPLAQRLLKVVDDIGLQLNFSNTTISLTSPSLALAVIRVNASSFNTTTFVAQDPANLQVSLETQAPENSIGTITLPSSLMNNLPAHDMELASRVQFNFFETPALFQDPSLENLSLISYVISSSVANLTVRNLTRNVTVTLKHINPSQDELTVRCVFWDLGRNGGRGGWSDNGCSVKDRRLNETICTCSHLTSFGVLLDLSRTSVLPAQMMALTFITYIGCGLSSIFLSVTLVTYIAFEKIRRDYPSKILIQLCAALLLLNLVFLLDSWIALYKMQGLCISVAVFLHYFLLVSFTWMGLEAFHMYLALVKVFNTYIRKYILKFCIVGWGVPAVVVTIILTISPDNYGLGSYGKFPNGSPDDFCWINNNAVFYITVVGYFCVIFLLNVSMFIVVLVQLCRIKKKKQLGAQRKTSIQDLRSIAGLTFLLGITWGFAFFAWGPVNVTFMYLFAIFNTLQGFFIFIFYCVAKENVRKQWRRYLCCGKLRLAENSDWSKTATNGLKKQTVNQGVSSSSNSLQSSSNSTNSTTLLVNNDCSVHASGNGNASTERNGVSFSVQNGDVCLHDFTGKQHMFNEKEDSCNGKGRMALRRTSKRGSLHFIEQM

The mark [9] stands for this setting: read-out: % GPCR activation compared to TPA, 5-HT1B (5-hydroxytryptamine receptor 1B).
Where [10] appears, read: read-out: % GPCR activation compared to TPA, CCR2 (C-C motif chemokine receptor 2).
The mark [11] stands for this setting: read-out: % GPCR activation compared to TPA, GPCR CXCR1 (chemokine (C-X-C motif) receptor 1).
Where [12] appears, read: read-out: % GPCR activation compared to TPA, GPCR CXCR5 (C-X-C motif chemokine receptor 5).
Where [13] appears, read: read-out: % GPCR activation compared to TPA, GALR3 (galanin receptor 3).
The mark [14] stands for this setting: read-out: % GPCR activation compared to TPA, GPCR GPR113 (G-protein-coupled receptor 113 (ADGRF3)).
The mark [15] stands for this setting: read-out: % GPCR activation compared to TPA, HTR4 (5-hydroxytryptamine (serotonin) receptor 4).
The mark [16] stands for this setting: read-out: % GPCR activation compared to TPA, GPCR GPR64 (G protein-coupled receptor 64).
Setting [17] is: 5-HT1B (5-hydroxytryptamine receptor 1B), read-out: % GPCR activation compared to TPA.
Where [18] appears, read: CCR2 (C-C motif chemokine receptor 2), read-out: % GPCR activation compared to TPA.
[19] abbreviates: GALR3 (galanin receptor 3), read-out: % GPCR activation compared to TPA.
Setting [20] is: HTR4 (5-hydroxytryptamine (serotonin) receptor 4), read-out: % GPCR activation compared to TPA.
Where [21] appears, read: GPCR CXCR1 (chemokine (C-X-C motif) receptor 1), read-out: % GPCR activation compared to TPA.
[22] abbreviates: GPCR CXCR5 (C-X-C motif chemokine receptor 5), read-out: % GPCR activation compared to TPA.
Where [23] appears, read: GPCR GPR113 (G-protein-coupled receptor 113 (ADGRF3)), read-out: % GPCR activation compared to TPA.
Where [24] appears, read: GPCR GPR64 (G protein-coupled receptor 64), read-out: % GPCR activation compared to TPA.

The structures appear in SMILES notation. Like-named read-outs stand apart in the source and are kept apart here.

T7 sequence (Q13639 whole entry): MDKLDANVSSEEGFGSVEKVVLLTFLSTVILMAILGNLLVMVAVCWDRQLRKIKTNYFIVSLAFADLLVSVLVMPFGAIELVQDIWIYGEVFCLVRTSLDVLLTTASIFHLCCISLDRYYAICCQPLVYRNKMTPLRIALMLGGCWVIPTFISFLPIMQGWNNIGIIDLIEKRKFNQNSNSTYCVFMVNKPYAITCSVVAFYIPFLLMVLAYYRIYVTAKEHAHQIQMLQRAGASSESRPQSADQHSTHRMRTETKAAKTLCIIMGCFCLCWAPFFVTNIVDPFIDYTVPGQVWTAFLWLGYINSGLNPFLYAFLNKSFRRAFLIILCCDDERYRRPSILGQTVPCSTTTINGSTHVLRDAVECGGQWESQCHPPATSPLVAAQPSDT
T1 sequence (P28222 whole entry): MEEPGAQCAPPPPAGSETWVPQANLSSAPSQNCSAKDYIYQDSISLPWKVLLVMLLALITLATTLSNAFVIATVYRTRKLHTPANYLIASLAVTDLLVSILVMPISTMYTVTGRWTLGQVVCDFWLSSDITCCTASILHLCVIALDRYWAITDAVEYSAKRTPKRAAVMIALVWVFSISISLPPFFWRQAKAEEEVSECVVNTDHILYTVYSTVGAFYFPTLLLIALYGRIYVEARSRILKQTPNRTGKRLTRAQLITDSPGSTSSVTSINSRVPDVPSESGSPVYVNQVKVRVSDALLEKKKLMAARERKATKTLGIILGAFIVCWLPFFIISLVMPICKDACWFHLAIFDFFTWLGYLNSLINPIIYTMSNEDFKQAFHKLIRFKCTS
T2 sequence (P41597 whole entry): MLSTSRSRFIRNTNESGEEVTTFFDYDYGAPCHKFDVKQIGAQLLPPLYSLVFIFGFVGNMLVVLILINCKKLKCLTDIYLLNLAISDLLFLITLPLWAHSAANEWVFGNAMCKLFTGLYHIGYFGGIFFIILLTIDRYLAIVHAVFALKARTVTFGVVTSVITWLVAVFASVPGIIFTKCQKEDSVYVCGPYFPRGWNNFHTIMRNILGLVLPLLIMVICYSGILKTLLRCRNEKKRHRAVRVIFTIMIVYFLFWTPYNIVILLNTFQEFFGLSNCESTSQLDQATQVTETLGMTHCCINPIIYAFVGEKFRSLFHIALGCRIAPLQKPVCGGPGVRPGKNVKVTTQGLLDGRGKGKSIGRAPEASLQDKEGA

As for `CC(C)OC(=O)[C@H](C)N[P@](=O)(OC[C@H]1O[C@@H](n2ccc(=O)[nH]c2=O)[C@](C)(F)[C@@H]1O)Oc1ccccc1` [sofosbuvir], the activation at 100 µM is -1% at 348 GPCRs [1] (setting [9]), -0.876% at 348 GPCRs [2] (setting [10]), -0.187% on 348 GPCRs [5] (setting [13]) and -4.08% at 348 GPCRs [7] (setting [15]). For the same compound, the activation at 10 µM on 348 GPCRs [3] (setting [11]) is -0.0928%; on 348 GPCRs [4] (setting [12]) it was -0.968%; on 348 GPCRs [6] (setting [14]), 0.111%; at 348 GPCRs [8] (setting [16]), -7.7%.
Consider `NC(=O)c1nc(F)cnc1O` [favipiravir, 6-fluoro-3-hydroxy-2-pyrazinecarboxamide], for which the activation at 100 µM was -3.2% on 348 GPCRs [1] (setting [17]); 5.66% on 348 GPCRs [2] (setting [18]); -1.26% on 348 GPCRs [3] (GPCR CXCR1 (chemokine (C-X-C motif) receptor 1), 100μM, read-out: % GPCR activation compared to TPA); -2.18% at 348 GPCRs [4] (GPCR CXCR5 (C-X-C motif chemokine receptor 5), 100μM, read-out: % GPCR activation compared to TPA); 3.96% on 348 GPCRs [5] (setting [19]); -1.12% on 348 GPCRs [6] (GPCR GPR113 (G-protein-coupled receptor 113 (ADGRF3)), 100μM, read-out: % GPCR activation compared to TPA). Besides, the activation at 100 µM at 348 GPCRs [7] (setting [20]) was -3.64%; on 348 GPCRs [8] (GPCR GPR64 (G protein-coupled receptor 64), 100μM, read-out: % GPCR activation compared to TPA) it was -2.31%.
As for `CCC(CC)COC(=O)[C@H](C)N[P@](=O)(OC[C@H]1O[C@@](C#N)(c2ccc3c(N)ncnn23)[C@H](O)[C@@H]1O)Oc1ccccc1` [remdesivir], the activation at 100 µM at 348 GPCRs [1] (setting [9]) is -0.255%; at 348 GPCRs [2] (setting [10]) it was 5.23%; at 348 GPCRs [5] (setting [13]), 3.03%; at 348 GPCRs [7] (setting [15]) it was -2.24%. Besides, the activation at 10 µM on 348 GPCRs [3] (setting [11]) was -0.838%; on 348 GPCRs [4] (setting [12]), -0.166%; on 348 GPCRs [6] (setting [14]), 0.66%; on 348 GPCRs [8] (setting [16]), -4.08%.
Consider `N#C[C@@]1(c2ccc3c(N)ncnn23)O[C@H](CO)[C@@H](O)[C@H]1O` [GS441524], for which the activation at 100 µM on 348 GPCRs [1] (setting [17]) is -3.77%; on 348 GPCRs [2] (setting [18]) it was 2.78%; on 348 GPCRs [5] (setting [19]) it was 2.25%; at 348 GPCRs [7] (setting [20]), -1.56%. Also, the activation at 10 µM is -1.09% on 348 GPCRs [3] (setting [21]), -2.05% on 348 GPCRs [4] (setting [22]), -1.08% on 348 GPCRs [6] (setting [23]) and -4.34% at 348 GPCRs [8] (setting [24]).
Regarding `CC(C)C(=O)OC[C@H]1O[C@@H](n2ccc(NO)nc2=O)[C@H](O)[C@@H]1O` [molnupiravir], the activation at 100 µM was -0.835% on 348 GPCRs [1] (setting [17]), 0.105% on 348 GPCRs [2] (setting [18]), 0.404% at 348 GPCRs [5] (setting [19]) and -3.37% on 348 GPCRs [7] (setting [20]). For the same compound, the activation at 10 µM was -2.06% on 348 GPCRs [3] (setting [21]), -2% on 348 GPCRs [4] (setting [22]), -1.49% on 348 GPCRs [6] (setting [23]) and -5.62% at 348 GPCRs [8] (setting [24]).

Values taken from article PMC10175918 (Communications Biology, 2023).
